Reference: ChEMBL document CHEMBL5055668 (J Med Chem, 2021)
The source made the active and inactive calls. No cut-off for these calls is given here.

Columns and labels:
BMDM [1] = test: (§1) Induction of conversion of M2-macrophages to the M1 phenotype in CM of MC38 cells treated C57BL/6 mouse BMDM cells assessed as down regulation of Il10 mRNA expression at 30 to 100 nM preincubated with culture medium of MC38 cells for 24 hrs followed by compound addition and measured after 24 hrs by qPCR analysis; format: functional, cell-based; conditions: dose 30-100 nM
BMDM [2] = test: as §1, with “Chil3” for “Il10”; format: functional, cell-based; conditions: dose 30-100 nM
BMDM [3] = test: as §1, with “upregulation” for “down regulation”, “Tnf” for “Il10”; format: functional, cell-based; conditions: dose 30-100 nM
BMDM [4] = test: as §1, with “upregulation” for “down regulation”, “[…]” for “Il10”; format: functional, cell-based; conditions: dose 30-100 nM
THP-1 [5] = test: Induction of conversion of M2-macrophages to the M1 phenotype in CM of HCT116 cells treated […]-differentiated human THP-1 cells assessed as down regulation of Il10 mRNA expression at 30 to 100 nM incubated for 24 hrs by qPCR analysis; format: functional, cell-based; conditions: dose 30-100 nM
THP-1 [6] = test: Induction of conversion of M2-macrophages to the M1 phenotype in CM of HCT116 cells treated […]-differentiated human THP-1 cells assessed as down regulation of Arg1 mRNA expression at 30 to 100 nM incubated for 24 hrs by qPCR analysis; format: functional, cell-based; conditions: dose 30-100 nM
THP-1 [7] = test: Induction of conversion of M2-macrophages to the M1 phenotype in CM of HCT116 cells treated […]-differentiated human THP-1 cells assessed as upregulation of Il12 mRNA expression at 30 to 100 nM incubated for 24 hrs by qPCR analysis; format: functional, cell-based; conditions: dose 30-100 nM
THP-1 [8] = test: Induction of conversion of M2-macrophages to the M1 phenotype in CM of HCT116 cells treated […]-differentiated human THP-1 cells assessed as upregulation of Il6 mRNA expression at 30 to 100 nM incubated for 24 hrs by qPCR analysis; format: functional, cell-based; conditions: dose 30-100 nM
THP-1 [9] = test: Induction of conversion of M2-macrophages to the M1 phenotype in CM of HCT116 cells treated […]-differentiated human THP-1 cells assessed as upregulation of Nos2 mRNA expression at 30 to 100 nM incubated for 24 hrs by qPCR analysis; format: functional, cell-based; conditions: dose 30-100 nM
MC-38 [10] = test: Antitumor activity against mouse MC38 cells allografted in po dosed C57BL6 mouse assessed as inhibition of tumor growth administered daily for 2 weeks by caliper method; format: functional, organism-based; conditions: dose 5-20 mg/kg
Mus musculus [11] = test: Toxicity in C57BL/6 mouse allografted with mouse MC38 cells assessed as weight loss at 5 to 20 mg/kg, po administered every day for 2 weeks; format: organism-based, MC-38; conditions: in vivo, 336 h, dose 5-20 mg/kg
Mus musculus [12] = test: Toxicity in C57BL/6 mouse allografted with mouse MC38 cells assessed as spleen damage at 5 to 20 mg/kg, po administered every day for 2 weeks by histopathological analysis; format: organism-based, MC-38; conditions: in vivo, 336 h, dose 5-20 mg/kg
Mus musculus [13] = test: Toxicity in C57BL/6 mouse allografted with mouse MC38 cells assessed as heart damage at 5 to 20 mg/kg, po administered every day for 2 weeks by histopathological analysis; format: organism-based, MC-38; conditions: in vivo, 336 h, dose 5-20 mg/kg
Mus musculus [14] = test: Toxicity in C57BL/6 mouse allografted with mouse MC38 cells assessed as kidney damage at 5 to 20 mg/kg, po administered every day for 2 weeks by histopathological analysis; format: organism-based, MC-38; conditions: in vivo, 336 h, dose 5-20 mg/kg
MC-38 [15] = test: Antitumor activity against mouse MC38 cells allografted in C57BL6 mouse assessed as decrease in Retnla mRNA expression at 10 to 20 mg/kg, po administered daily for 2 weeks by qPCR analysis; format: functional, organism-based; conditions: dose 10-20 mg/kg
MC-38 [16] = test: Antitumor activity against mouse MC38 cells allografted in C57BL6 mouse assessed as decrease in Vegf mRNA expression at 10 to 20 mg/kg, po administered daily for 2 weeks by qPCR analysis; format: functional, organism-based; conditions: dose 10-20 mg/kg
MC-38 [17] = test: Antitumor activity against mouse MC38 cells allografted in C57BL6 mouse assessed as increase in Tnf mRNA expression at 10 to 20 mg/kg, po administered daily for 2 weeks by qPCR analysis; format: functional, organism-based; conditions: dose 10-20 mg/kg
MC-38 [18] = test: Antitumor activity against mouse MC38 cells allografted in C57BL6 mouse assessed as increase in Il12 mRNA expression at 10 to 20 mg/kg, po administered daily for 2 weeks by qPCR analysis; format: functional, organism-based; conditions: dose 10-20 mg/kg
MC-38 [19] = test: Antitumor activity against mouse MC38 cells allografted in C57BL6 mouse assessed as increase in Il6 mRNA expression at 10 to 20 mg/kg, po administered daily for 2 weeks by qPCR analysis; format: functional, organism-based; conditions: dose 10-20 mg/kg
MC-38 [20] = test: Antitumor activity against mouse MC38 cells allografted in macrophage depleted C57BL6 mouse at 20 mg/kg, po administered daily for 2 weeks; format: functional, organism-based
HCT-116 [21] = test: Antitumor activity against human HCT-116 cells xenografted in nude BALB/c mouse assessed as tumor growth inhibition at 5 to 20 mg/kg, po administered daily for 2 weeks; format: functional, organism-based; conditions: dose 5-20 mg/kg
HCT-116 [22] = test: Antitumor activity against human HCT-116 cells xenografted in nude BALB/c mouse assessed as reduction in tumor weight at 5 to 20 mg/kg, po administered daily for 2 weeks; format: functional, organism-based; conditions: dose 5-20 mg/kg

For `Cc1[nH]c(/C=C2\C(=O)Nc3cc(NC(=O)Nc4cc(C(C)(C)C)on4)ccc32)c(C)c1NC(=O)CN1CCN(C)CC1`, the Activity (BMDM [1]) was “Active”, the Activity (BMDM [2]) was “Active” and the Activity (BMDM [3]) was “Active”. The Activity (BMDM [4]) was “Active”, the Activity (THP-1 [5]) was “Active” and the Activity (THP-1 [6]) was “Active”. The Activity (THP-1 [7]) was “Active”, the Activity (THP-1 [8]) was “Active” and the Activity (THP-1 [9]) was “Active”. The Activity (MC-38 [10]) was “Dose-dependent effect”, the Activity (Mus musculus [11]) was “Non-Toxic” and the Activity (Mus musculus [12]) was “Non-Toxic”. For the same molecule, the Activity (Mus musculus [13]) was “Non-Toxic”, the Activity (Mus musculus [14]) was “Non-Toxic” and the Activity (MC-38 [15]) was “Active”. For the same molecule, the Activity (MC-38 [16]) was “Active”, the Activity (MC-38 [17]) was “Active” and the Activity (MC-38 [18]) was “Active”. For the same molecule, the Activity (MC-38 [19]) was “Active”, the Activity (MC-38 [20]) was “inactive” and the Activity (HCT-116 [21]) was “inactive”. For the same molecule, the Activity (HCT-116 [22]) was “inactive”.
